According to article PMC12627862, “Therapeutic targeting of endothelial calcium signaling accelerates the resolution of lung injury” (Signal Transduction and Targeted Therapy, 2025):
Starred links: 1 amine or outer side, 2 acyl side, 3 side chain; linkers in the order of their positions; H or OH if unused. Non-standard residues stand in square brackets, D forms with d. Residues, ends and D or L forms follow the SMILES beside them. ξ: configuration not given here. Oic = O=C(O)[C@@H]1C[C@@H]2CCCC[C@@H]2N1; GABOB(3R) = O=C(C[C@@H](O)CN[*:1])[*:2]; tBuAla = CC(C)(C)C[C@H](N)C(=O)O; ξVal(3-OH) = CC(C)(O)C(N)C(=O)O; 4Amb = NCc1ccc(C(=O)O)cc1

Columns and labels:
[1] = system: CD1 mice, cecal ligation and puncture; test: Polymicrobial sepsis model (CLP); assay type: in vivo, mouse
[2] = system: Pseudomonas aeruginosa; test: I.t. P. aeruginosa-induced pneumonia; assay type: in vivo, mouse
Text: Most ARDS cases arise secondary to pneumonia, in which infectious agents directly target the alveolar epithelium. Damage to these epithelial cells disrupts the integrity of the alveolar–capillary barrier, leading to protein-rich pulmonary edema and widespread inflammation, two hallmark features of diffuse alveolar damage. Because endothelial barrier disruption is a downstream consequence in this context, we also evaluated the benefits of VT-109 treatment in a model of Pseudomonas aeruginosa–induced lung injury, the most commonly acquired hospital-associated pneumonia. Mice were infected with a sublethal intratracheal dose of 5 × 10^5 CFU Pseudomonas aeruginosa and treated with a moderately efficacious dose of VT-109 (250 nmol/kg bw) at 5 hours post-challenge. The lung tissues were collected at 24 and 48 hours for histopathological analysis of acute lung injury, neutrophil influx, and bacterial counts in BALF (Fig. 5k–n and Supplementary Fig. 4j).
Mice (CD1) were anesthetized by intraperitoneal injection of xylazine and positioned supine on a sterile surgical surface. A small midline incision was made in the neck to expose the trachea. GFP-expressing Pseudomonas aeruginosa (PA) was cultured overnight in LB broth supplemented with carbenicillin (100 µg/mL). A total volume of 30 µL PBS containing 0.5 × 10⁶ colony-forming units (CFU) was injected directly into the trachea using a sterile 28G insulin syringe. Following intratracheal instillation, mice received VT-109 (250 nmol/kg body weight) or vehicle by IV at 5- and 24-hours post-infection. Lung tissues were collected at 24 and 48 hours to assess treatment effects. The left lung was inflated with fixative and harvested for histological analysis, while the right lung was collected for bacterial quantification. For CFU analysis, the right lung was homogenized in 1 mL of sterile PBS using a bead-based tissue homogenizer. Homogenates were serially diluted and plated on LB agar containing carbenicillin (100 µg/mL). Plates were incubated overnight at 37 °C, and CFUs were counted the following day. […]

[3] = target: full-length EB3 (Homo sapiens, UniProt Q9UPY8); test: STD-NMR binding to EB3 (amplification factor); details: versus the linear precursor
Sequence of full-length EB3 (Q9UPY8 whole entry, species assumed): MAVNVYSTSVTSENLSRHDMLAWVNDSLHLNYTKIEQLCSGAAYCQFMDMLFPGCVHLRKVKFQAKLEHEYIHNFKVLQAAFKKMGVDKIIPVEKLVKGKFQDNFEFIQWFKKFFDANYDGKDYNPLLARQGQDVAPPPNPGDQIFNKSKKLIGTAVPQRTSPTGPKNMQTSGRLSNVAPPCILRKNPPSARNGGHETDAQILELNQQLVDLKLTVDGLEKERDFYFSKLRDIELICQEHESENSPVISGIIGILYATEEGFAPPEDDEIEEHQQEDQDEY
Text: To screen these drug-like compounds for binding to full-length EB3, we employed the saturation transfer difference (STD)-NMR approach as a cell-free throughput screening platform. We were unable to use other methods, such as isothermal titration calorimetry, because of the nature of the EB3 dimer, which dynamically exchanges chains within the dimer—a process influenced by the binding of the C-terminus to its partners, such as the tested peptides. To analyze the STD-NMR data quantitatively, we established the amplification factor (AMPSTD), a change in signal intensity upon saturation that is normalized to ligand abundance (Fig. 1a), as a measure of the binding affinity of the compounds to the target protein EB3. […]
Fig. 1 NMR-based characterization of EB3 inhibitors. a The saturation transfer difference (STD) NMR approach was used to profile peptide binding to EB3. […] The amplification ratio was calculated as follows: AMPSTD = ISTD/INO SAT x {L}, where ISTD is the highest STD signal intensity measured with saturation; INO SAT is the intensity measured for the same signal without saturation; and {L} is the peptide concentration. c ^1H-^15N HSQC spectrum of ^15N-enriched EB3_200-281 alone (black) and in the presence of a 1:1 molar ratio of 109 (cyan). […]

[4] = 24 hours after CLP, 18-gauge, n = 3
[5] = 24 hours after CLP, 2 µmol/kg bw i.v. 5 hours post-surgery, n = 5
[6] = BAL 24 hours after CLP, treatment at 5 hours post-surgery, Mean±Std, n = 8–10
[7] = CLP, VT-109 monotherapy 2 µmol/kg bw i.v.
[8] = PF (peritoneal fluid), head says BAL, CLP, Mean±Std

## CC(C)(C)C[C@@H]1NC(=O)C[C@@H](O)CNC(=O)[C@@H]2C[C@@H]3CCCC[C@@H]3N2C(=O)[C@H](CC(C)(C)C)NC(=O)c2ccc(cc2)CNC(=O)C(C(C)(C)O)NC(=O)[C@@H](Cc2ccccc2)NC1=O (stereo partly drawn) [compound 109, (1^2S,1^3aS,1^7aS,3S,10S,13R,16S,20R)-13-benzyl-20-hydroxy-10-(2-hydroxypropan-2-yl)-3,16-dineopentyl-1^2,1^3,1^3a,1^4,1^5,1^6,1^7,1^7a-octahydro-1^1H-4,8,11,14,17,22-hexaaza-1(1,2)-indola-6(1,4)-benzenacyclotricosaphane-2,5,9,12,15,18,23-heptaone.] (cyclo([4Amb][tBuAla][Oic][GABOB(3R)][tBuAla][dF][ξVal(3-OH)]))
[1]; 24 hours after CLP
  bacterial counts in the blood or peritoneal fluid: did not affect
[1]; [4]
  phosphorylation of FOXM1 at Ser715: increased phosphorylation
  sepsis-induced changes of FOXM1, FOXO1, E2F3, β-catenin and p21 in lung tissue (Western blot): reversed these changes
[1]; 24 hours after CLP, 18-gauge, to the baseline levels of sham mice
  VE-cadherin and occludin expression: restored
[1]; [5]
  alanine aminotransferase (ALT), blood: reduced levels
  blood urea nitrogen (BUN): reduced levels
[1]; 24 hours after CLP, VT-109 monotherapy versus vehicle
  bacterial colony counts in bronchoalveolar lavage fluid (BALF): markedly reduced
[1]; [6]
  BAL Cytokine mGM-CSF: 1.21 ± 0.70 pg/mL
  BAL Cytokine mIFNγ: 0.49 ± 0.34 pg/mL
  BAL Cytokine mIL-1a: 0.14 ± 0.00 pg/mL
  BAL Cytokine mIL-1b: 1.59 ± 1.01 pg/mL
  BAL Cytokine mIL-4: 2.79 ± 1.03 pg/mL
  BAL Cytokine mIL-6: 282.12 ± 522.24 pg/mL
  BAL Cytokine mIL-10: 2.19 ± 2.95 pg/mL
  BAL Cytokine mIL-12: 16.99 ± 7.90 pg/mL
  BAL Cytokine mIL-17: 0.14 ± 0.00 pg/mL
  BAL Cytokine mKC: 609.75 ± 878.78 pg/mL
  BAL Cytokine mMCP-1: 19.17 ± 28.01 pg/mL
  BAL Cytokine mMIP-1α: 1.16 ± 1.31 pg/mL
  BAL Cytokine mRANTES: 2.55 ± 5.23 pg/mL
[1]; CLP 18-gauge, VT-109 monotherapy 2 µmol/kg bw i.v., initiated 5 hours post-surgery
  survival rate: significantly improved the survival rate
[1]; CLP 18-gauge, monotherapy: VT-109 0.5 µmol/kg bw or enrofloxacin 5 mg/kg bw
  survival: neither antibiotics nor VT-109 monotherapy (0.5 µmol/kg bw) significantly improved survival
[1]; [7]
  acute lung injury (H&E, ALI score): prevented the development of acute lung injury
  neutrophil recruitment into lung tissue (Ly6G): markedly suppressed
[1]; [8]
  Cytokine mGM-CSF: 15.75 ± 20.22 pg/mL
  Cytokine mIFNγ: 4.39 ± 3.00 pg/mL
  Cytokine mIL-1a: 104.93 ± 94.65 pg/mL
  Cytokine mIL-1b: 229.14 ± 237.82 pg/mL
  Cytokine mIL-3: 0.28 ± 0.00 pg/mL
  Cytokine mIL-4: 6.90 ± 0.83 pg/mL
  Cytokine mIL-5: 5.06 ± 2.77 pg/mL
  Cytokine mIL-6: 46833 ± 65942 pg/mL
  Cytokine mIL-10: 432.67 ± 490.14 pg/mL
  Cytokine mIL-12: 57.48 ± 43.37 pg/mL
  Cytokine mIL-17: 7.20 ± 5.26 pg/mL
  Cytokine mKC: 24611 ± 34486 pg/mL
  Cytokine mMCP-1: 16338 ± 17531 pg/mL
  Cytokine mMIP-1α: 5136 ± 8056 pg/mL
  Cytokine mRANTES: 382.32 ± 397.78 pg/mL
  Cytokine mTNFα: 29.39 ± 31.64 pg/mL
[2]; 5 × 10^5 CFU i.t., 250 nmol/kg bw at 5 hours post-challenge, 24 and 48 hours
  neutrophils in the lung tissues: far fewer neutrophils
[2]; 5 × 10^5 CFU i.t., 250 nmol/kg bw, 24 and 48 hours
  lung injury (histopathology): appeared uninjured
[2]; both time points, did not reach statistical significance
  bacterial counts: modest reduction
[3]
  improvement of EB3 binding by head-to-tail cyclization: approximately 4 fold
